PubChem BioAssay AID1259407 (Chemical Carcinogenesis Research Information System (CCRIS), 2018)
Calls of active or inactive are those of the source. The rule behind the calls is not given here.

Test system: CCRIS mutagenicity, Ames/micronucleus/aberration tests
Experiment: CCRIS mutagenicity studies
[1] = Test System: AMES SALMONELLA TYPHIMURIUM, Strain/Indicator: TA98, Metabolic Activation: HAMSTER, LIVER, S-9, AROCLOR 1254 (10%), Method: PREINCUBATION
[2] = Test System: AMES SALMONELLA TYPHIMURIUM, Strain/Indicator: TA98, Metabolic Activation: NONE, Method: PREINCUBATION
[3] = Test System: AMES SALMONELLA TYPHIMURIUM, Strain/Indicator: TA98, Metabolic Activation: NONE, Method: STANDARD PLATE
[4] = Test System: AMES SALMONELLA TYPHIMURIUM, Strain/Indicator: TA98, Metabolic Activation: RAT, LIVER, S-9, AROCLOR 1254 (10%), Method: PREINCUBATION
[5] = Test System: AMES SALMONELLA TYPHIMURIUM, Strain/Indicator: TA100, Metabolic Activation: NONE, Method: PREINCUBATION
[6] = Test System: AMES SALMONELLA TYPHIMURIUM, Strain/Indicator: TA100, Metabolic Activation: NONE, Method: STANDARD PLATE
[7] = Test System: AMES SALMONELLA TYPHIMURIUM, Strain/Indicator: TA1535, Metabolic Activation: HAMSTER, LIVER, S-9, AROCLOR 1254 (10%), Method: PREINCUBATION
[8] = Test System: AMES SALMONELLA TYPHIMURIUM, Strain/Indicator: TA1535, Metabolic Activation: NONE, Method: PREINCUBATION
[9] = Test System: AMES SALMONELLA TYPHIMURIUM, Strain/Indicator: TA1535, Metabolic Activation: RAT, LIVER, S-9, AROCLOR 1254 (10%), Method: PREINCUBATION
[10] = Test System: AMES SALMONELLA TYPHIMURIUM, Strain/Indicator: TA1537, Metabolic Activation: HAMSTER, LIVER, S-9, AROCLOR 1254 (10%), Method: PREINCUBATION
[11] = Test System: AMES SALMONELLA TYPHIMURIUM, Strain/Indicator: TA1537, Metabolic Activation: NONE, Method: PREINCUBATION
[12] = Test System: AMES SALMONELLA TYPHIMURIUM, Strain/Indicator: TA1537, Metabolic Activation: NONE, Method: STANDARD PLATE
[13] = Test System: AMES SALMONELLA TYPHIMURIUM, Strain/Indicator: TA1537, Metabolic Activation: RAT, LIVER, S-9, AROCLOR 1254 (10%), Method: PREINCUBATION

[O]=[Zr]
mutagenic call [1]: inactive; negative
mutagenic call (Test System: AMES SALMONELLA TYPHIMURIUM, Strain/Indicator: TA98, Metabolic Activation: HAMSTER, LIVER, S-9, AROCLOR 1254, Method: STANDARD PLATE): inactive; negative
mutagenic call [2]: inactive; negative
mutagenic call [3]: inactive; negative
mutagenic call [4]: inactive; negative
mutagenic call (Test System: AMES SALMONELLA TYPHIMURIUM, Strain/Indicator: TA98, Metabolic Activation: RAT, LIVER, S-9, AROCLOR 1254, Method: STANDARD PLATE): inactive; negative
mutagenic call (Test System: AMES SALMONELLA TYPHIMURIUM, Strain/Indicator: TA100, Metabolic Activation: HAMSTER, LIVER, S-9, AROCLOR 1254 (10%), Method: PREINCUBATION): inactive; negative
mutagenic call (Test System: AMES SALMONELLA TYPHIMURIUM, Strain/Indicator: TA100, Metabolic Activation: HAMSTER, LIVER, S-9, AROCLOR 1254, Method: STANDARD PLATE): inactive; negative
mutagenic call [5]: inactive; negative
mutagenic call [6]: inactive; negative
mutagenic call (Test System: AMES SALMONELLA TYPHIMURIUM, Strain/Indicator: TA100, Metabolic Activation: RAT, LIVER, S-9, AROCLOR 1254 (10%), Method: PREINCUBATION): inactive; negative
mutagenic call (Test System: AMES SALMONELLA TYPHIMURIUM, Strain/Indicator: TA100, Metabolic Activation: RAT, LIVER, S-9, AROCLOR 1254, Method: STANDARD PLATE): inactive; negative
mutagenic call [7]: inactive; negative
mutagenic call (Test System: AMES SALMONELLA TYPHIMURIUM, Strain/Indicator: TA1535, Metabolic Activation: HAMSTER, LIVER, S-9, AROCLOR 1254, Method: STANDARD PLATE): inactive; negative
mutagenic call [8]: inactive; negative
mutagenic call (Test System: AMES SALMONELLA TYPHIMURIUM, Strain/Indicator: TA1535, Metabolic Activation: NONE, Method: STANDARD PLATE): inactive; negative
mutagenic call [9]: inactive; negative
mutagenic call (Test System: AMES SALMONELLA TYPHIMURIUM, Strain/Indicator: TA1535, Metabolic Activation: RAT, LIVER, S-9, AROCLOR 1254, Method: STANDARD PLATE): inactive; negative
mutagenic call [10]: inactive; negative
mutagenic call (Test System: AMES SALMONELLA TYPHIMURIUM, Strain/Indicator: TA1537, Metabolic Activation: HAMSTER, LIVER, S-9, AROCLOR 1254, Method: STANDARD PLATE): inactive; negative
mutagenic call [11]: inactive; negative
mutagenic call [12]: inactive; negative
mutagenic call [13]: inactive; negative
mutagenic call (Test System: AMES SALMONELLA TYPHIMURIUM, Strain/Indicator: TA1537, Metabolic Activation: RAT, LIVER, S-9, AROCLOR 1254, Method: STANDARD PLATE): inactive; negative
mutagenic call (Test System: AMES SALMONELLA TYPHIMURIUM, Strain/Indicator: TA1538, Metabolic Activation: HAMSTER, LIVER, S-9, AROCLOR 1254, Method: STANDARD PLATE): inactive; negative
mutagenic call (Test System: AMES SALMONELLA TYPHIMURIUM, Strain/Indicator: TA1538, Metabolic Activation: NONE, Method: STANDARD PLATE): inactive; negative
mutagenic call (Test System: AMES SALMONELLA TYPHIMURIUM, Strain/Indicator: TA1538, Metabolic Activation: RAT, LIVER, S-9, AROCLOR 1254, Method: STANDARD PLATE): inactive; negative
mutagenic call (Test System: MOUSE LYMPHOMA, Strain/Indicator: L5178Y (TK+/TK-), Metabolic Activation: NONE, Method: SUSPENSION/PLATE): inactive; negative. reevaluation of results: negative
mutagenic call (Test System: MOUSE LYMPHOMA, Strain/Indicator: L5178Y (TK+/TK-), Metabolic Activation: RAT, LIVER, S-9, AROCLOR 1254, Method: SUSPENSION/PLATE): inactive; negative. reevaluation of results: negative

O=C1N(CO)C(O)C(O)N1CO (stereo not drawn)
mutagenic call (Test System: AMES SALMONELLA TYPHIMURIUM, Strain/Indicator: TA98, Metabolic Activation: HAMSTER, LIVER, AROCLOR 1254 (10%), Method: PREINCUBATION): inactive; negative
mutagenic call [1]: inactive; negative
mutagenic call [4]: inactive; negative
mutagenic call [5]: inactive; negative
mutagenic call [7]: inactive; negative
mutagenic call [8]: inactive; negative
mutagenic call [9]: inactive; negative
mutagenic call [10]: inactive; negative
mutagenic call [11]: inactive; negative
mutagenic call [13]: inactive; negative

OCc1cccc2c1-c1cccc3cccc-2c13
mutagenic call [3]: inactive; negative
mutagenic call [6]: inactive; negative

O=[N+]([O-])c1ccc(-c2ccc([N+](=O)[O-])cc2)cc1
mutagenic call (Test System: AMES SALMONELLA TYPHIMURIUM, Strain/Indicator: TA98(1,8-DNP6), Metabolic Activation: NONE, Method: STANDARD PLATE): active; positive
mutagenic call (Test System: AMES SALMONELLA TYPHIMURIUM, Strain/Indicator: TA98(NR), Metabolic Activation: NONE, Method: STANDARD PLATE): inactive; negative
mutagenic call [2]: active; positive
mutagenic call [3]: active; positive
mutagenic call (Test System: AMES SALMONELLA TYPHIMURIUM, Strain/Indicator: TA98, Metabolic Activation: RAT, LIVER, S-9, PCB (10%), Method: PREINCUBATION): active; positive

CCCCNC(=O)c1cc(N)ccc1Oc1ccccc1
mutagenic call (Test System: Ames Salmonella typhimurium, Strain/Indicator: TA98, Metabolic Activation: None, Method: Preincubation): inactive; negative. data for this compound, pa10, mentioned in abstract only.
mutagenic call (Test System: Ames Salmonella typhimurium, Strain/Indicator: TA98, Metabolic Activation: Rat, Liver, S-9, Phenobarbital and beta-naphthoflavone, Method: Preincubation): inactive; negative. this compound, pa10, converted by s-9 to a hydroxy derivative.
mutagenic call (Test System: Ames Salmonella typhimurium, Strain/Indicator: TA100, Metabolic Activation: None, Method: Preincubation): inactive; negative. data for this compound, pa10, mentioned in abstract only.
mutagenic call (Test System: Ames Salmonella typhimurium, Strain/Indicator: TA100, Metabolic Activation: Rat, Liver, S-9, Phenobarbital and beta-naphthoflavone, Method: Preincubation): inactive; negative. this compound, pa10, converted by s-9 to a hydroxy derivative.
mutagenic call (Test System: Ames Salmonella typhimurium, Strain/Indicator: TA102, Metabolic Activation: None, Method: Preincubation): inactive; negative. data for this compound, pa10, mentioned in abstract only.
mutagenic call (Test System: Ames Salmonella typhimurium, Strain/Indicator: TA1535, Metabolic Activation: None, Method: Preincubation): inactive; negative. data for this compound, pa10, mentioned in abstract only.
mutagenic call (Test System: Ames Salmonella typhimurium, Strain/Indicator: TA1537, Metabolic Activation: None, Method: Preincubation): inactive; negative. data for this compound, pa10, mentioned in abstract only.

CC(C)C(=O)Nc1snc2cc(Cl)ccc12
mutagenic call [6]: inactive; negative
mutagenic call (Test System: AMES SALMONELLA TYPHIMURIUM, Strain/Indicator: TA100, Metabolic Activation: S-9, Method: STANDARD PLATE): inactive; negative

CCN(CC)CCNc1ccc2ncn3c4ccc(O)cc4c(=O)c1c23
mutagenic call [12]: active; positive
mutagenic call (Test System: AMES SALMONELLA TYPHIMURIUM, Strain/Indicator: TA1537, Metabolic Activation: S-9, Method: STANDARD PLATE): active; positive
mutagenic call (Test System: CHINESE HAMSTER V-79, Strain/Indicator: V-79 (HGPRT)/6-THIOGUANINE, Metabolic Activation: NONE): active; positive
